Measured values: patent US20080050720A1 (priority 2003, published 2008)

Tests used:
[1] = system: lawn of the YMR325W reporter strain (S. Cerevisiae strain ABY12); assay: Solid plate halo assay, growth of reporter strain lawn; assay type: cell-based; details: paper disc; 20 ul of 50 ug/ml Miconazole or 20 ul of 1500 ug/ml Lovastatin; 30° C.
Protocol: (§1) The assay was designed to mimic assays of natural product producing strains in the presence of ABY12 reporter carrying strains.
(§2) 1. A YMR325W reporter was transformed into wild-type S. Cerevisiae strain ABY12 and grown on a solid Casamino Acids media plate.
(§3) 2. A culture from the solid media plate was used to inoculate a 50 ml liquid culture in Casamino Acids media. The liquid culture was grown overnight at 30° C. to a final OD600=8, and then diluted in Casamino Acids media to an OD600=1, or about 1×10^7 cells per milliliter. Five-hundred microliters of cell culture (about 5×10^6 cells) was spread evenly over the surface of each of two 100 mm solid agar-Casamino-acids-media plates to form a lawn of the YMR325W reporter strain on each plate.
3. Two 6 mm diameter blank paper discs (Becton Dickinson #231039), evenly spaced apart, were placed on top of the agar surface of each plate. On one plate 20 ul of 50 ug/ml of the sterol biosynthesis inhibitor Miconazole was spotted onto one of the two paper discs and 20 ul of 10% DMSO was spotted on the other paper disc as a control. On the other plate 20 ul of 1500 ug/ml Lovastatin was spotted onto one of the two paper discs and 20 ul of 10% DMSO was spotted on the other paper disc as a control. […]
(§4) 4. After a 72 hour incubation the assay plates were imaged in a Molecular Dynamics Fluorimager SI to measure the fluorescence from the GFP reporters.

YMR325W reporter = assay: Solid plate halo assay, fluorescence from the GFP reporter; assay type: cell-based, S. cerevisiae; details: for induction of YMR325W reporter (zone of high fluorescence at the edge of halo): paper disc, 20 ul of 50 ug/ml Miconazole or 20 ul of 1500 ug/ml Lovastatin, 30° C.
Protocol: as §1, §2, §3
3. Two 6 mm diameter blank paper discs (Becton Dickinson #231039), evenly spaced apart, were placed on top of the agar surface of each plate. On one plate 20 ul of 50 ug/ml of the sterol biosynthesis inhibitor Miconazole was spotted onto one of the two paper discs and 20 ul of 10% DMSO was spotted on the other paper disc as a control. On the other plate 20 ul of 1500 ug/ml Lovastatin was spotted onto one of the two paper discs and 20 ul of 10% DMSO was spotted on the other paper disc as a control. The plates were incubated at 30° C. overnight.
as §4

YMR325W gene reporter = assay: 96-well liquid high-throughput like assay with YMR325W-GFP reporter strain; assay type: cell-based, S. cerevisiae; details: serial 1 to 2 dilutions; initial Lovastatin 30 ug/ml, Miconazole 25 ug/ml, Fenpropimorph 50 ug/ml, Tunicamycin 25 ug/ml; 30° C., about 24 hours
Protocol: 1. A YMR325W gene reporter was transformed into wild-type S. Cerevisiae strain ABY12 and grown on solid Casamino Acids media plates.
2. A culture from the solid media plate was used to inoculate a 50 ml liquid culture in Casamino Acids media. The liquid culture was grown overnight at 30° C. to an OD600=8, and then was diluted in Casamino Acids media to an OD600=1.
3. Drug-like agents Lovastatin, Miconazole, and Fenpropimorph, sterol biosynthesis inhibitors that target different molecular steps in the sterol biosynthesis pathway, and UDP-N-acetyl-glucosamine-1-P transferase (GPT) inhibitor Tunicamycin, a negative control, were used in the assay. Each of the four drugs was added to individual wells (one drug per well) in the second column of a 96-well assay plate and serially diluted (1 to 2) into Casamino Acids media plus 2% DMSO in columns 3-12. The initial concentrations of the drugs were as follows: Lovastatin: 30 ug/ml, Miconazole: 25 ug/ml, Fenpropimorph: 50 ug/ml, and Tunicamycin: 25 ug/ml. The first column of the plate was used as a “no drug” control, containing only Casamino Acids media plus 2% DMSO. Each well contained a final volume of 100 ul of media and/or media plus drug.
4. […]
5. After the 24 hour incubation the 96-well assay plate was imaged in a Molecular Dynamics Fluorimager SI to measure the fluorescence from the YMR325W-GFP reporter.

**Q.** Which “growth inhibition of the lawn (halo of no growth)” value [1] does the source give for `CC[C@H](C)C(=O)O[C@H]1C[C@@H](C)C=C2C=C[C@H](C)[C@H](CC[C@@H]3C[C@@H](O)CC(=O)O3)[C@H]21` [Lovastatin] here?
**A.** inhibited the growth

**Q.** And the “size of zone of fluorescence, Lovastatin compared with Miconazole” value (YMR325W reporter; 20 ul of 1500 ug/ml Lovastatin versus 20 ul of 50 ug/ml Miconazole)?
**A.** much larger zone of fluorescence

**Q.** And the “induction of YMR325W reporter (zone of high fluorescence at the edge of halo)” value (YMR325W reporter)?
**A.** significantly induced

**Q.** How did the “growth inhibition of the lawn (halo of no growth)” value [1] turn out when `Clc1ccc(COC(Cn2ccnc2)c2ccc(Cl)cc2Cl)c(Cl)c1` (stereo not drawn) [Miconazole] was run?
**A.** inhibited the growth

**Q.** What about the “induction of YMR325W reporter (zone of high fluorescence at the edge of halo)” value (YMR325W reporter) of the same compound?
**A.** significantly induced

**Q.** For Tunicamycin, which “fluorescence from the YMR325W-GFP reporter” value (YMR325W gene reporter) is on record?
**A.** No increase in fluorescence
